Legend:
[1] = target: T1, McrBC (Escherichia coli, UniProt P15005); test: steady-state intrinsic tryptophan fluorescence; assay type: binding; details: 0.5 uM McrB, 0.125 uM McrC, 1 mM nucleotide, 5 mM MgCl2, pH 8, 25 C
T1 construct: gene mcrB; full-length McrB with C-terminal Gly-Ser-His6 plus untagged McrC, mixed 4:1 or SEC-purified complex; tetradecamer 734 kDa; with Type IV methyl-directed restriction enzyme EcoKMcrBC (5-methylcytosine-specific restriction enzyme subunit McrC)

[2] = target: T2, McrBΔN (Escherichia coli, UniProt P15005); test: SAXS of nucleotide-dependent hexamer; assay type: binding; details: McrBΔN without His-tag, 1 mg/ml
T2 construct: gene mcrB; C-terminal Gly-Ser-His6 tag (untagged version for SAXS)

[3] = target: T3, McrB (Escherichia coli, UniProt P15005); test: steady-state intrinsic tryptophan fluorescence; assay type: binding; details: 0.5 uM McrB, 1 mM nucleotide, 5 mM MgCl2, pH 8, 25 C
[4] = target: T4, McrBΔNC (Escherichia coli, UniProt P15005); test: SAXS of nucleotide-dependent tetradecamer; assay type: binding; details: 1 mg/ml protein
T4 construct: gene mcrB; McrB residues 162-460 (without His6 tag for SEC-MALS and SAXS) plus untagged McrC; tetradecamer 500 kDa; with Type IV methyl-directed restriction enzyme EcoKMcrBC (5-methylcytosine-specific restriction enzyme subunit McrC)

[5] = target: McrB (Escherichia coli, UniProt P15005, E280Q); test: SEC-MALS, hexamer with nucleotide; assay type: binding; details: 18 uM protein
[6] = target: T2, McrBΔN; test: malachite green GTPase; SEC and SEC-MALS oligomerisation; assay type: biochemical; details: 1 mM GTP, 15 mM MgCl2, 50 mM KCl, pH 8, 37 C
[7] = target: McrB (Escherichia coli, UniProt P15005, E280A); test: SEC-MALS, hexamer with nucleotide; assay type: binding; details: 18 uM protein
[8] = target: T2, McrBΔN; test: electron cryomicroscopy 2D class averages, hexamer; assay type: binding; details: 1 mM GDPNP, 1 mM MgCl2, pH 7.4
[9] = target: T2, McrBΔN; test: SEC, nucleotide-induced oligomerisation; assay type: binding; details: 18 uM protein, MgCl2, pH 8
[10] = target: T3, McrB; test: SEC, nucleotide-induced oligomerisation; assay type: binding; details: 18 uM protein, MgCl2, pH 8
[11] = target: McrBΔN^WT (McrBΔN without His6 tag) (Escherichia coli K12) (UniProt P15005); test: SEC-MALS; Superose 6 10/300, 0.5 ml/min, 10 mM Tris-Cl pH 7.4, 100 mM NaCl, 1 mM MgCl2, 1 mM DTT, 0.1 mM GTP; McrBC and McrBΔNC complexes run at 0.6 mg/ml
[12] = target: McrB (full length, C-terminal His6) (Escherichia coli K12) (UniProt P15005); test: as above
[13] = target: McrBΔN^WT (McrBΔN without His6 tag) (Escherichia coli K12) (UniProt P15005); test: SAXS; 1 mg/ml protein in buffer B100 with GTPγS, 15°C, beamline B21 Diamond; mass by SAXSMoW2

Nc1nc2c(ncn2[C@@H]2O[C@H](COP(=O)(O)OP(=O)(O)OP(O)(O)=S)[C@@H](O)[C@H]2O)c(=O)[nH]1 [GTPγS] was tested, and the Trp fluorescence increase [1] was ~ 23%, the “SAXS of nucleotide-dependent hexamer” value [2] was “Good quality data was collected for McrBΔN and McrBΔNC in presence of the non-hydrolysable analogue GTPγS” and the Trp fluorescence increase [3] was ~ 30%. For the same molecule, the “SAXS of nucleotide-dependent tetradecamer” value [4] was “Good quality data was collected for McrBΔN and McrBΔNC in presence of the non-hydrolysable analogue GTPγS”.

In the case of Nc1nc2c(ncn2[C@@H]2O[C@H](COP(=O)(O)OP(=O)(O)OP(=O)(O)O)[C@@H](O)[C@H]2O)c(=O)[nH]1 [GTP], the “SEC-MALS, hexamer with nucleotide” value [5] is reported as “had a mass comparable to wild type McrB hexamer in presence of GTP or GDP”, the Trp fluorescence increase ([1]; GTP hydrolysed by this complex) is reported as ~ 15% and the “malachite green GTPase; SEC and SEC-MALS oligomerisation” value [6] is reported as “only a weak GTPase activity for both McrB (Figure 5A) and McrBΔN”. For the same molecule, the “SEC-MALS, hexamer with nucleotide” value [7] was “had a mass comparable to wild type McrB hexamer in presence of GTP or GDP” and the Trp fluorescence increase ([3]; weak GTPase without McrC) was ~ 20%.

With Nc1nc2c(ncn2[C@@H]2O[C@H](COP(=O)(O)OP(=O)(O)NP(=O)(O)O)[C@@H](O)[C@H]2O)c(=O)[nH]1 [GDPNP] the Trp fluorescence increase [1] was ~ 15%, the “electron cryomicroscopy 2D class averages, hexamer” value [8] was “Imaging of McrB or McrBΔN after the addition of GDPNP showed round particles” and the Trp fluorescence increase [3] was ~ 20%.

For Nc1nc2c(ncn2[C@@H]2O[C@H](COP(=O)(O)OP(=O)(O)O)[C@@H](O)[C@H]2O)c(=O)[nH]1 [GDP], the “SEC-MALS, hexamer with nucleotide” value [5] was “had a mass comparable to wild type McrB hexamer in presence of GTP or GDP”, the “SEC, nucleotide-induced oligomerisation” value [9] was “In presence of GTP or GDP, McrB and McrBΔN eluted as a high molecular mass oligomer” and the “SEC-MALS, hexamer with nucleotide” value [7] was “had a mass comparable to wild type McrB hexamer in presence of GTP or GDP”. For the same molecule, the “SEC, nucleotide-induced oligomerisation” value [10] was “In presence of GTP or GDP, McrB and McrBΔN eluted as a high molecular mass oligomer”.

B1: McrC (natural protein)
chain: MEQPVIPVRNIYYMLTYAWGYLQEIKQANLEAIPGNNLLDILGYVLNKGVLQLSRRGLELDYNPNTEIIPGIKGRIEFAKTIRGFHLNHGKTVSTFDMLNEDTLANRIIKSTLAILIKHEKLNSTIRDEARSLYRKLPGISTLHLTPQHFSYLNGGKNTRYYKFVISVCKFIVNNSIPGQNKGHYRFYDFERNEKEMSLLYQKFLYEFCRRELTSANTTRSYLKWDASSISDQSLNLLPRMETDITIRSSEKILIVDAKYYKSIFSRRMGTEKFHSQNLYQLMNYLWSLKPENGENIGGLLIYPHVDTAVKHRYKINGFDIGLCTVNLGQEWPCIHQELLDIFDEYLK
For B1, the copies of McrB in the complex [11] was 12, the copies of McrC in the complex [11] was 2 and the copies of McrB in the complex [12] was 12. For the same molecule, the copies of McrC in the complex [12] was 2, the copies of McrB in the complex [13] was 12 and the copies of McrC in the complex [13] was 2.

Source: PMC6344862, “Hexameric assembly of the AAA+ protein McrB is necessary for GTPase activity” (Nucleic Acids Research, 2018)
